Assay results: publication PMC6480704, “Antiproliferative Aspidosperma-Type Monoterpenoid Indole Alkaloids from Bousigonia mekongensis Inhibit Tubulin Polymerization” (Molecules, 2019)
Entries after “also recorded” stand apart in the source; their conditions may differ. Like-named read-outs stand apart in the source and are kept apart here.

What was measured:
[1] = tested on: MCF-7 (estrogen receptor-positive breast cancer); assay: Antiproliferative SRB assay, MCF-7; assay type: cell-based; details: Homo sapiens, read-out: IC50 MCF-7
Experimental: (§1) We tested the fourteen known aspidosperma-type alkaloids (1–14) against chemosensitive KB (originally isolated from epidermoid carcinoma of the nasopharynx) and P-gp over-expressing multidrug-resistant (MDR) KB subline KB-VIN, as well as three additional human cancer cell lines, A549 (lung carcinoma), MDA-MB-231 (triple negative breast cancer), and MCF-7 (estrogen receptor-positive breast cancer), using a sulforhodamine B (SRB) assay (Table 1).
(§2) Antiproliferative activity was determined by the sulforhodamine B (SRB) colorimetric assay as previously described. In brief, human tumor cell lines were cultured in RPMI-1640 medium containing 2 mM l-glutamine and 25 mM HEPES (Gibco), supplemented with 10% fetal bovine serum (Speciality Media), 100 µg/mL streptomycin, 100 IU/mL penicillin, and 0.25 µg/mL amphotericin B (Corning). MDR stock cells (KB-VIN) were maintained in the presence of 100 nM vincristine (VIN) (Sigma-Aldrich, Saint Louis, MI, USA).
(§3) Freshly trypsinized cell suspensions were seeded in 96-well microtiter plates at densities of 4000–11,000 cells per well (based on the cell lines) with compounds. After 72 h in culture with test compounds, cells were fixed in 10% trichloroacetic acid followed by staining with 0.04% sulforhodamine B (Sigma-Aldrich). The bound SRB was solubilized in 10 mM Tris-base and the absorbance at 515 nm was measured using a Microplate Reader (ELx800, Bio-Tek Instruments, Winooski, VT, USA) operated by Gen5 software (BioTek) after solubilizing the protein-bound dye with 10 mM Tris base. The mean IC50 is the concentration of agent that reduced cell growth by 50% compared with vehicle (DMSO) control under the experimental conditions and is the average from at least three independent experiments with duplicate samples.
(§4) The following human tumor cell lines were used in the assay: A549 (lung carcinoma), MDA-MB-231 (triplen-egative breast cancer), KB (originally isolated from epidermoid carcinoma of the nasopharynx), KB-VIN (VIN-resistant KB subline showing MDR phenotype by overexpressing P-gp), MCF-7 (estrogen receptor (ER)-positive, HER2-negative breast cancer). […] All cell lines were obtained from the Lineberger Comprehensive Cancer Center (UNC-CH) or from ATCC (Manassas, VA), except KB-VIN, which was a generous gift from Professor Y.-C. Cheng (Yale University). Paclitaxel was purchased from Sigma-Aldrich.

[2] = tested on: MDA-MB-231 (triple negative breast cancer); assay: Antiproliferative SRB assay, MDA-MB-231; assay type: cell-based; details: Homo sapiens, read-out: IC50 MDA-MB-231
Experimental: as §1, §2, §3, §4

[3] = tested on: A549, MDA-MB-231, KB, KB-VIN, and MCF-7; assay: Antiproliferative SRB assay, values stated across several cell lines; assay type: cell-based, human; details: for antiproliferative activity (in words): five human tumor cell lines including MDR subline KB-VIN
Experimental: as §1, §2, §3, §4

[4] = tested on: A549 (lung carcinoma); assay: Antiproliferative SRB assay, A549; assay type: cell-based; details: Homo sapiens, read-out: IC50 A549
Experimental: as §1, §2, §3, §4

[5] = tested on: KB (originally isolated from epidermoid carcinoma of the nasopharynx); assay: Antiproliferative SRB assay, KB; assay type: cell-based; details: Homo sapiens, 72 h, read-out: IC50 KB
Experimental: as §1, §2, §3, §4

[6] = tested on: KB-VIN (VIN-resistant KB subline showing MDR phenotype by overexpressing P-gp); assay: Antiproliferative SRB assay, KB-VIN; details: Homo sapiens, KBVIN, 72 h, read-out: IC50 KB-VIN
Experimental: as §1, §2, §3, §4

[7] = tested on: KB-VIN cells; assay: Immunofluorescence staining of α-tubulin, pH3 and DNA; assay type: cell-based, human; details: 24 h, 3 × IC50
Experimental: (§5) Figure 2 Mitotic defects in KB-VIN cells treated by compounds. […] Cell cycle distributions (sub-G1, G1, S, G2/M) were analyzed using flow cytometry after staining cells with propidium iodide (PI). […] Fixed cells were stained with antibodies to α-tubulin (green) and phospho-histone H3 (pH3, red), and DAPI was used for DNA (blue). Stained cells were observed by confocal fluorescence microscope. The represented image is a projection of 15~20 optical sections acquired at 0.5~1 µm intervals. […] Bar, 0.025 mm. Additional images are available in Supplementary Figure S1.
To determine whether the cell cycle arrest was due to an antimicrotubule effect, cells treated with compounds were analyzed by immunocytochemistry using antibodies to α-tubulin for microtubules and mitotic spindles, Ser10-phosphorylated histone H3 (pH3) for the condensed chromatins and 4′,6-diamidino-2-phenylindole (DAPI) for DNA. […] Thus, we concluded that these alkaloids are tubulin polymerization inhibitors.
Immunocytochemical analysis was performed as previously described. […] After treatment of cells with the agent for 24 h, cells were fixed with 4% paraformaldehyde in PBS and permeabilized with 0.5% Triton X-100 in PBS. Fixed cells were labeled with mouse monoclonal antibody to α-tubulin (B5-1-2, Sigma) and rabbit IgG to Ser10-phosphorylated histone H3 (p-H3) (#06570, EMD Millipore), followed by FITC-conjugated antibody to mouse IgG (Sigma) and Alexa Fluor 549-conjugated antibody to rabbit IgG (Life Technologies). Nuclei were labeled with DAPI (Sigma). Fluorescently-labeled cells were observed using a confocal microscope (Zeiss, LSM700) with ZEN (black edition) software (Zeiss). The 15~20 optical sections acquired at 0.5~1 µm intervals were stacked and reconstructed using ZEN (black edition) software. Experiments were repeated at least twice for each compound. Final images were prepared using Adobe Photoshop CS3.

[8] = tested on: KB-VIN cells; assay: Cell cycle analysis by flow cytometry (PI staining); assay type: cell-based, human; details: 24 h, 1 × IC50 or 3 × IC50
Experimental: KB-VIN cells were treated with compounds 3, 4, 6, 7, and 13 at their IC50 (1 × IC50) or three-fold IC50 (3 × IC50) concentration, and the cell cycle progression was analyzed by flow cytometer (Figure 2A).
as §5
KB-VIN cells were seeded in 12-well plates at a density of 1 × 10^5 per well and incubated overnight. […] The DNA contents of stained cells were analyzed by flow cytometer (LSRFortessa, BD Biosciences) controlled by FACSDiva software (BD Biosciences). Paclitaxel (PXL) was used at 3 or 6 µM. […] Experiments were repeated a minimum of two times.

[9] = Homo sapiens, A549, KB, KB-VIN, range stated for the group of compounds, read-out: IC50 values ranging over A549, KB and KB-VIN cells

## CC[C@]12C=CCN3CC[C@]4(C(=C(C(=O)OC)C1)Nc1ccccc14)[C@@H]32 [Compound 1, tabersonine]
[1]; MCF7, 72 h
  IC50: 7.2 ± 0.4 µM
[2]; MDA-MB-231, 72 h
  IC50: 5.9 µM
[3]
  antiproliferative activity (in words): exhibited antiproliferative activity against all cell lines
[4]; A549, 72 h
  IC50: 6.9 ± 0.1 µM
[5]
  IC50: 5.5 µM
[6]
  IC50: 7.4 ± 0.3 µM

## CC[C@]12CCCN3CC[C@]4(C(=C(C(=O)OC)C1)Nc1ccccc14)[C@@H]32 [Compound 2, vincadifformine]
[1]; MCF7, SRB assay, 72 h
  IC50: > 40 µM
[2]; MDA-MB-231, SRB assay, 72 h
  IC50: > 40 µM
[3]
  antiproliferative activity (in words): essentially inactive
[4]; A549, SRB assay, 72 h
  IC50: > 40 µM
[5]; SRB assay
  IC50: > 40 µM
[6]
  IC50: > 40 µM

## CC[C@]12C=C[C@@H](CC(C)=O)N3CC[C@]4(C(=C(C(=O)OC)C1)Nc1ccccc14)[C@@H]32 [Compound 3, 3α-acetonyl-tabersonine]
[1]; MCF7, SRB assay, 72 h
  IC50: 2.2 ± 0.2 µM
[2]; MDA-MB-231, SRB assay, 72 h
  IC50: 0.9 µM
[3]; [9]
  IC50: 0.5 to 0.9 µM
[3]
  antiproliferative activity (in words): exhibited antiproliferative activity against all cell lines; also recorded: significant antiproliferative effects against all five tumor cell lines
[7]
  microtubule / mitotic spindle morphology: dotted tubulin aggregations without spindles
[4]; A549, SRB assay, 72 h
  IC50: 0.6 µM
[8]
  effect on cell cycle progression: accumulation of cells in the G2/M phase; also recorded: cell cycle arrest at G2/M
[5]; SRB assay
  IC50: 0.6 µM
[6]
  IC50: 0.6 ± 0.1 µM

## CC[C@@]12CC(C(=O)OC)=C3Nc4ccccc4[C@@]34CCN([C@H](CC(C)=O)[C@@H]3O[C@@H]31)[C@@H]24 [Compound 4, melodinine S]
[1]; MCF7, SRB assay, 72 h
  IC50: 10 ± 0.9 µM
[2]; MDA-MB-231, SRB assay, 72 h
  IC50: 8.2 ± 0.8 µM
[3]
  antiproliferative activity (in words): exhibited antiproliferative activity against all cell lines; also recorded: significant antiproliferative effects against all five tumor cell lines
[3]; five human tumor cell lines, read-out: IC50 range over the cell lines tested
  IC50: 5.6 to 10 µM
[7]
  microtubule / mitotic spindle morphology: dotted tubulin aggregations without spindles
[4]; A549, SRB assay, 72 h
  IC50: 5.6 µM
[8]
  effect on cell cycle progression: accumulation of cells in the G2/M phase; also recorded: cell cycle arrest at G2/M
[5]; SRB assay
  IC50: 5.8 ± 0.3 µM
[6]
  IC50: 6.3 ± 0.2 µM

## CC[C@@]12CC(C(=O)OC)=C3Nc4ccccc4[C@@]34CCN(C[C@H]3O[C@H]31)[C@@H]24 [Compound 8, pachysiphine]
[1]; MCF7, SRB assay, 72 h
  IC50: > 40 µM
[2]; MDA-MB-231, SRB assay, 72 h
  IC50: 34.5 ± 0.2 µM
[3]
  antiproliferative activity (in words): essentially inactive
[4]; A549, SRB assay, 72 h
  IC50: 27.7 ± 0.1 µM
[5]; SRB assay
  IC50: > 40 µM
[6]
  IC50: > 40 µM

## CC[C@@]12CC(C(=O)OC)=C3Nc4cc(OC)ccc4[C@@]34CCN(C[C@H]3O[C@H]31)[C@@H]24 [Compound 9, lochnerinine]
[1]; MCF7, SRB assay, 72 h
  IC50: 10.2 ± 0.5 µM
[2]; MDA-MB-231, SRB assay, 72 h
  IC50: 6 ± 0.8 µM
[3]; 6 compared with 5, 9 compared with 8
  fold rise in potency by a methoxy group at C-11: ~ 60 fold
[3]; [9]
  IC50: 0.5 to 0.9 µM
[3]
  antiproliferative activity (in words): exhibited antiproliferative activity against all cell lines
[4]; A549, SRB assay, 72 h
  IC50: 0.8 µM
[5]; SRB assay
  IC50: 0.9 µM
[6]
  IC50: 0.7 µM
